Here are results for 10 compounds from patent US4370416A (Kikkoman Corporation, priority 1980, dated 1983).

In one experiment the test system is HCEH. The experiment is described as follows: Activity of HCEH on hydroxy-cinnamic acid ester substances and tannic acid (liquid chromatography). The format is biochemical. Conditions: for Relative activity: HCEH on the substance as substrate, 0.1 M phosphate buffer pH 6.5, molar ratio of produced hydrolyzate; for Action and substrate specificity of the enzyme (hydrolysis of the ester linkage): qualitative. The protocol:
Here, the activity of HCEH on various hydroxy-cinnamic acid ester substances and tannic acid was determined by measuring the quantity of their hydrolysis by means of liquid chromatography using 0.1 M phosphate buffer solution (pH 6.5). The results are shown in Table 3, where the activity is expressed as molar ratio of produced hydrolyzate.

For a further experiment, the system named is novel HCEH. The experiment is described as follows: Inhibition of the novel HCEH. The class given is biochemical.

As for `O=C(C=Cc1ccc(O)c(O)c1)OC(C(=O)O)C(O)C(=O)O` (stereo not shown), in the experiment with HCEH, the Relative activity turned out to be 69.8%; the “Action and substrate specificity of the enzyme (hydrolysis of the ester linkage)” value (“Action and substrate specificity” below) is given as “hydrolyze the ester linkage”.
Consider `O=C(C=Cc1ccc(O)c(O)c1)OC1CC(O)(C(=O)O)CC(O)C1O` (stereo not shown) [3-caffeoyl quinic acid], for which, in the experiment with HCEH, the Relative activity came out at 100%; the “Action and substrate specificity” value is recorded as “hydrolyze the ester linkage”.
With `Oc1cccc2cccnc12` [8-hydroxyquinoline], the “Inhibition of HCEH” value with novel HCEH is “inhibited”.
On the same count and under the same terms, to `[Fe+2]` [Fe^++] belongs “inhibited”; to `[Hg+2]` [Hg^++], “inhibited”.
Consider `COc1cc(C=CC(=O)OC(C(=O)O)C(O)C(=O)O)ccc1O` (stereo not shown) [feruloyl tartaric acid], for which the “Action and substrate specificity” value in the experiment with HCEH is listed as “hydrolyze the ester linkage”.
Turning to `II` [iodine], in the experiment with novel HCEH, the “Inhibition of HCEH” value is on record as “inhibited”.
The same measure, in the same setting: to `O=C(O)c1cc[c]([Hg][Cl])cc1` [p-CMB, p-chloromercury-benzoic acid] belongs “inhibited”.
Regarding `O=C(C=Cc1ccc(O)cc1)OC(C(=O)O)C(O)C(=O)O` (stereo not shown) [p-coumaroyl tartaric acid], in the experiment with HCEH, the Relative activity is on record as 78.3%; the “Action and substrate specificity” value is “hydrolyze the ester linkage”.
Regarding Tannic acid, the Relative activity in the experiment on HCEH worked out at 0%.
